Reference: patent US20140045809A1, “CORROLES FOR NEUROPROTECTION AND NEURORESCUE” (priority 2008, published 2014)
Where two headings read alike, the source gives them in different places.

Experiments:
RIN-m cells [1] = test: Protection of RIN-m beta cells against H2O2 toxicity (MTT); format: cell-based, rat; settings: 20 μM, 30 min before 35 μM H2O2, 24 h
Method: Two insulin-secreting beta cell lines, rat insulinoma (INS-1E) and RIN-m cells, were used to examine the protective effect of corrole 1C-Fe. The cells were cultured at 37° C., in a humid 5% CO2, 95% air environment in regular RPMI-1640 medium (Invitrogen) supplemented with 5% fetal calf serum (FCS).
After 2 days of culture, RIN-m cells (5×10^4 cells/well in 96-well plates) were treated with corrole 1C-Fe (1-50 μM) before addition of 35 μM of H2O2. Cell viability was evaluated by a colorimetric assay for mitochondrial function estimation using the MTT test as previously described (Gassen et al., 1998) and expressed as percentage of control.
RIN-m cells were grown as described in Example 5. After 3 days of culture, RIN-m cells (2.5×10^4 cells/well in 96-well plates) were treated with corroles 1C-Fe or 5C-Fe or porphyrin 1P-Fe (1 and 20 μM), added 30 min prior to treatment with 35 μM H2O2 and further incubated for 24 h. Cell injury was evaluated by MTT test. […] […].
Protective effect of iron(III) corrole complexes against H2O2-induced toxicity (150 μM) was compared to that of manganese(III) corroles and related porphyrin. […].

INS-1E cells = test: Protection of INS-1E cells against SIN-1 toxicity (MTT); format: cell-based, rat; settings: 10 μM, 30 min before SIN-1 (500 or 600 μM), 24 h
Method: (§1) INS-1E cells or RIN-m cells were cultured in RPMI with low serum content (2% FCS), placed in microtiter plates (96 wells) at a density of 2.5×10^4 cells/well and allowed to attach for 24 h before treatment. Corroles 1C-Fe and 5C-Fe (10 μM) were added 30 min prior to insult with the nitric oxide donor SIN-1 (500 or 600 μM) for a subsequent 24 h period. Cell viability was evaluated by a colorimetric assay for mitochondrial function using 3-(4,5-dimethylthiazol-2-yl)-2,5-diphenyltetrazolium bromide (MTT test), and expressed as percentage of untreated control. Values higher than 100% reflect increased mitochondrial activity induced by the drug. The results represent the mean±SEM of three independent experiments performed under the same conditions.

RIN-m cells [2] = test: Protection of RIN-m cells against SIN-1 toxicity (MTT); format: cell-based, rat; settings: 10 μM, 30 min before SIN-1 (500 or 600 μM), 24 h
Method: as §1
Insulin-secreting RIN-m cells were incubated in RPMI with low serum content (2% FCS) and placed in microtiter plates (96 wells) at a density of 2.5×10^4 cells/well and allowed to attach for 24 h before treatment. Cells were treated with corroles 1C-Fe, 1C-Mn or 2C-Mn or porphyrins 1P-Fe or 2P-Mn, in various concentrations (0.1-20 μM), for 30 min prior to insult with SIN-1 (800 μM) for a subsequent 24 h period. Cell viability was evaluated by MTT test and expressed as percentage of untreated control.

SH-SY5Y cells [3] = format: cell-based
Method: Human neuroblastoma cell line was also examined under conditions similar to RIN-m cells to reveal the corrole's ability to prevent neuronal death caused by oxidative stress. SH-SY5Y cells were plated in microtiter plates (96 wells) in DMEM-Eagle/F-12(HAM) (1:1), containing 10% FCS. To examine neuroprotective effect, SH-SY5Y cells were treated for 30 min with corroles 1C-Fe and 5C-Fe (20 and 50 μM) before addition of 20 μM H2O2 for 24 h. To examine neurorescue, SH-SY5Y cells were first exposed to 20 μM H2O2 for 0.5 h, 1.5 h or 3 h, followed by the addition of corroles 1C-Fe and 5C-Fe (20 μM) and incubation for 24 h.
Compounds 1C-Fe and 1P-Fe (1-50 μM) were added 30 min before insult with H2O2 (200 μM), followed by a subsequent 24 h period. The neuroprotective effects of the iron corrole 1C-Fe and its structurally analogous iron porphyrin 1P-Fe, against H2O2-induced neurotoxicity were investigated using MTT reduction assay and cell death ELISA, based on the use of mouse monoclonal antibodies to detect free histones and fragmented DNA (F. Hollderieder et al, Biochemica 2002, 1, 25). […] In light of the observed neuroprotective effect of corrole 1C-Fe, we attempted to determine the length of the delay between H2O2 exposure and corrole 1C-Fe treatment that would still afford neuroprotection. H2O2 was administered to SH-SY5Y cells and corrole 1C-Fe was then added for 0.5-1.5 h thereafter. […]

SH-SY5Y cells [4] = test: Neuroprotection/neurorescue against SIN-1-induced cell death in SH-SY5Y cells; format: cell-based, human; settings: 24 h (Example 11)
Method: SH-SY5Y cells were cultured in DMEM-Eagle/F-12(HAM) (1:1) containing 10% FCS. Cells were resuspended in medium containing 2% FCS, seeded in microtiter plates (96 wells) and allowed to attach for 24 h before initiation of treatment. […]

SH-SY5Y cells [5] = format: cell-based; settings: 24 h
Method: SH-SY5Y cells were cultured in DMEM-Eagle/F-12(HAM) (1:1) containing 10% FCS. Cells were resuspended in medium containing 2% FCS, seeded in microtiter plates (96 wells) and allowed to attach for 24 h. To examine the neuroprotective effect, cells were pretreated for 30 min with corroles 1C-Fe and 5C-Fe (1-20 μM), and were then exposed to 6-OHDA (60 μM) for further 24 h. For neurorescue assessment, SH-SY5Y cells were first treated with 6-OHDA (60 μM) for 0.5 h, 1.5 h, 3 h and 6 h followed by the addition of compounds 1C-Fe and 5C-Fe (10 μM) for further 24 h.
SH-SY5Y cells were pretreated with or without corroles 1C-Fe, 2C-Mn and 3C-Mn and porphyrins 1P-Fe and 2P-Mn (20 μM), 30 min before exposure to 6-OHDA (40 μM) for a subsequent 24 h period. Cell viability was evaluated by MTT test and cell death was assessed using the apoptotic cell death detection ELISA kit. For neurorescue, SH-SY5Y cells were first exposed to 40 μM 6-OHDA for 0.5. 1, 1.5 and 3 h, followed by the addition of the compounds 1C-Fe, 2C-Mn and 3C-Mn (20 μM) and incubated for further 24 h. Growth-associated protein (GAP-43) was detected by fluorescence microscopy using a specific primary antibody. Apoptotic nuclei were determined by terminal deoxynucleotidyl transferase-mediated UTP-digoxigenin nick end labeling analysis. 4′,6-Diamidino-2-phenylnidole (DAPI) staining was applied for nuclear labeling. […]

NSC-34 G93A cells = test: Cell culture model of familial ALS, NSC-34 cells expressing mutant G93A-SOD1; format: cell-based, mouse; settings: 48 h induction; even at a concentration as low as 0.5 μM
Method: Mutant-superoxide dismutase (G93A-SOD1) is associated with familial amyotrophic lateral sclerosis (FALS). A cell culture model of FALS was implemented by stably transfecting mouse motoneuronal NSC-34 cells or SH-SY5Y cells, to express mutant G93A-SOD1 at levels approximating those seen in the human disease. NSC-34 cells or SH-SY5Y cells were incubated in Dulbecco's modified Eagle's/F-12 medium supplemented with 10% FCS tetracycline-free (FCS Tet-free; Clontech), at 37° C. in an atmosphere of 5% CO2 in air. These cell lines are stably transfected with the pTet-ON plasmid (Clontech, Palo Alto, Calif.) coding for the reverse tetracycline controlled transactivator (rtTA). Induction of mutant SOD1 expression was obtained by shifting nonconfluent cultures into growth medium containing 1% N2 supplement (Invitrogen, Carlsbad, Calif.) and […] doxocyclin for 48 h in the presence or absence of corrole 1C-Fe and 5C-Fe.

[6] = test system: nigral dopaminergic neurons; settings: MPTP model, also given post-MPTP; Gal et al., 2005; cited from earlier work
MAO-A = molecular target: T1, MAO-A (Mus musculus, UniProt Q64133); settings: Gal et al., 2005, cited from earlier work
T1 construct: host or cells: brain and peripheral organs of treated animals
T1 sequence (Q64133 1-526): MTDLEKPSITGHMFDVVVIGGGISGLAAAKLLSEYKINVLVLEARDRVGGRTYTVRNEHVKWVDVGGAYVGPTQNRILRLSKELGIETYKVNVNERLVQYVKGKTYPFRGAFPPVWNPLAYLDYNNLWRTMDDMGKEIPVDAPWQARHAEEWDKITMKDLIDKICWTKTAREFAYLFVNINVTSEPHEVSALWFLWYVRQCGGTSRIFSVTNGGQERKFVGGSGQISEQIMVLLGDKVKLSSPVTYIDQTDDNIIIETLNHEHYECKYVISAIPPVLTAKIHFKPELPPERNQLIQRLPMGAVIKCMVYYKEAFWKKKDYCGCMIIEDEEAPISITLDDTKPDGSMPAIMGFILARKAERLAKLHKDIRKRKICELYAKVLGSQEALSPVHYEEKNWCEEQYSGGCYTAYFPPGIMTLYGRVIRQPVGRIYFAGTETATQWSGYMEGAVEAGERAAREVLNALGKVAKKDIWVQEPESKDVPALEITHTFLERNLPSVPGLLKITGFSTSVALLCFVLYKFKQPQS

MAO-B = molecular target: T2, MAO-B (Mus musculus, UniProt Q8BW75); settings: Gal et al., 2005, cited from earlier work
T2 construct: host or cells: brain and peripheral organs of treated animals
T2 sequence (Q8BW75 1-520): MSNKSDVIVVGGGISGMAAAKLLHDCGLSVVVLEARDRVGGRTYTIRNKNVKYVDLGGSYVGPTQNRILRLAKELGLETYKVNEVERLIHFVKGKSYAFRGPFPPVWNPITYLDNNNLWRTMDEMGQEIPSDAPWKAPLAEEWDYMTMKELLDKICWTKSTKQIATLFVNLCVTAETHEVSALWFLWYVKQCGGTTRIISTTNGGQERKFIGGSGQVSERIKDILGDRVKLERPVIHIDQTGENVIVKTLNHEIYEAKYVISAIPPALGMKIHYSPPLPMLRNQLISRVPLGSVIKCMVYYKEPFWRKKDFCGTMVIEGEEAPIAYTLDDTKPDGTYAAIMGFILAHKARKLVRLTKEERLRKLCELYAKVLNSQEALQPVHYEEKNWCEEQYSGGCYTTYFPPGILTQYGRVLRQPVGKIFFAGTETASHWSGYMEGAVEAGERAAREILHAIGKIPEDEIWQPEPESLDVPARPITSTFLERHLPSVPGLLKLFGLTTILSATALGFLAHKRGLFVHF

Compound: O=C(O)CNS(=O)(=O)c1cc2[n]3c1C(c1c(F)c(F)c(F)c(F)c1F)=C1C=CC4=[N+]1[Fe-]31[n]3c(cc(S(=O)(=O)NCC(=O)O)c3-2)C(c2c(F)c(F)c(F)c(F)c2F)=c2ccc([n]21)=C4c1c(F)c(F)c(F)c(F)c1F (stereo not shown) [5C-Fe, 2,17-bis(N-sulfonylglycine)-5,10,15-tris(pentafluoro-phenyl)-corrolato iron(III)]
- protective effect against H2O2 toxicity relative to porphyrin 1P-Fe (MTT) (RIN-m cells [1]): exhibit a greater protective effect
- protective effect against SIN-1 induced toxicity (MTT) (INS-1E cells): marked protective effect
- protective effect against SIN-1 induced toxicity (MTT) (RIN-m cells [2]): marked protective effect
- neurorescue after H2O2 insult (SH-SY5Y cells [3]; 20 μM H2O2 for 0.5, 1.5 or 3 h, then 20 μM corrole, 24 h): instigated neurorescue
- neuroprotective effect against H2O2-induced toxicity (SH-SY5Y cells [3]; 20 and 50 μM, 30 min before 20 μM H2O2, 24 h): dose-dependent neuroprotective effect
- neurorescue after SIN-1 insult (SH-SY5Y cells [4]; 20 μM added 0.5, 1.5 or 3 h after insult): instigated neurorescue
- neuroprotective effect against SIN-1 induced toxicity (SH-SY5Y cells [4]; 10 and 20 μM, 30 min pretreatment): dose-dependent neuroprotective effect
- neuroprotective effect against 6-OHDA-induced toxicity (SH-SY5Y cells [5]; 1-20 μM, 30 min before 6-OHDA (60 μM)): dose-dependent neuroprotective effect
- neurorescue after 6-OHDA insult (SH-SY5Y cells [5]; 6-OHDA (60 μM) for 0.5, 1.5, 3 and 6 h, then 10 μM): instigated neurorescue
- cell viability of induced mutant cells (NSC-34 G93A cells): significantly improved cell viability

Compound: C#CCN(C)Cc1ccc(O)c2ncccc12 [M-30]
- neuroprotection and restoration of nigral dopaminergic neurons [6]: neuroprotective and also have the ability to restore nigral dopaminergic neurons when given post-MPTP
- MAO-A inhibition (MAO-A; in peripheral organs): poorly
- MAO-A inhibition (MAO-A; in the brain): potently inhibits
- MAO-B inhibition (MAO-B; in peripheral organs): poorly
- MAO-B inhibition (MAO-B; in the brain): potently inhibits

Compound: C#CCN[C@@H]1CCc2ccccc21 [rasagiline]
- neuroprotection and restoration of nigral dopaminergic neurons [6]: neuroprotective and also have the ability to restore nigral dopaminergic neurons when given post-MPTP
